Among the data in ChEMBL document CHEMBL1697731, “Cheminformatics analysis of assertions mined from literature that describe drug-induced liver injury in different species” (Chem Res Toxicol, 2010) are Hepatotoxicity values, retold here.

Data set [1] concerns Hepatotoxicity. The data set can be described thus: Literature-mined compound from Fourches et al multi-species drug-induced liver injury (DILI) dataset, effect in non-rodents.
The test system of data set [2] is Hepatotoxicity. Kind of data set: Literature-mined compound from Fourches et al multi-species drug-induced liver injury (DILI) dataset, effect in rodents. The following applies: rodentia.
Data set [3] has as its system Hepatotoxicity. Kind of data set: Literature-mined compound from Fourches et al multi-species drug-induced liver injury (DILI) dataset, effect in humans. Particulars: human.

As to `CCc1c2c(nc3ccc(OC(=O)N4CCC(N5CCCCC5)CC4)cc13)-c1cc3c(c(=O)n1C2)COC(=O)[C@]3(O)CC` [IRINOTECAN], the Hepatotoxicity entry in the data set with Hepatotoxicity [1] is listed as “no drug-induced liver injury reported”; with Hepatotoxicity [2], “no drug-induced liver injury reported”; in the data set with Hepatotoxicity [3] it was “drug-induced liver injury reported”.
In the case of `CC(C)Nc1ncccn1.O=P(O)(O)O` [ISAXONINE PHOSPHATE], the Hepatotoxicity entry with Hepatotoxicity [1] is given as “no drug-induced liver injury reported”; in the data set with Hepatotoxicity [2] it was “no drug-induced liver injury reported”; in the data set on Hepatotoxicity [3], “drug-induced liver injury reported”.
In the case of `O=c1c(-c2ccccc2)coc2ccccc12` [ISOFLAVONE], the Hepatotoxicity result is on record as “drug-induced liver injury reported” with Hepatotoxicity [1], “no drug-induced liver injury reported” in the data set with Hepatotoxicity [2] and “no drug-induced liver injury reported” in the data set on Hepatotoxicity [3].
Regarding `FC(F)OC(Cl)C(F)(F)F` (centres undefined) [ISOFLURANE], the Hepatotoxicity entry in the data set on Hepatotoxicity [1], in the data set on Hepatotoxicity [2] and in the data set on Hepatotoxicity [3] was “drug-induced liver injury reported” throughout.
Regarding `NNC(=O)c1ccncc1` [ISONIAZID], the Hepatotoxicity entry in the data set on Hepatotoxicity [1], with Hepatotoxicity [2] and in the data set on Hepatotoxicity [3] was “drug-induced liver injury reported” in each case.
Consider `CC(C)O` [ISOPROPYL ALCOHOL], for which the Hepatotoxicity result is “no drug-induced liver injury reported” in the data set with Hepatotoxicity [1], “drug-induced liver injury reported” in the data set with Hepatotoxicity [2] and “no drug-induced liver injury reported” in the data set with Hepatotoxicity [3].
With `CC(C)NCC(O)c1ccc(O)c(O)c1` (centres undefined) [ISOPROTERENOL], the Hepatotoxicity result in the data set on Hepatotoxicity [1] (Liver), in the data set with Hepatotoxicity [2] (Liver) and in the data set with Hepatotoxicity [3] (Liver) was “drug-induced liver injury reported” throughout.
Take `O=[N+]([O-])O[C@H]1CO[C@H]2[C@@H]1OC[C@H]2O[N+](=O)[O-]` [ISOSORBIDE DINITRATE]: the results for the Hepatotoxicity entry with Hepatotoxicity [1], with Hepatotoxicity [2] and with Hepatotoxicity [3] were “no drug-induced liver injury reported”, “drug-induced liver injury reported” and “drug-induced liver injury reported”, respectively.
For `O=[N+]([O-])O[C@@H]1CO[C@H]2[C@@H]1OC[C@@H]2O` [ISOSORBIDE MONONITRATE], the Hepatotoxicity entry with Hepatotoxicity [1] is listed as “no drug-induced liver injury reported”; with Hepatotoxicity [2], “no drug-induced liver injury reported”; in the data set on Hepatotoxicity [3], “drug-induced liver injury reported”.
For the compound `CC1=C(/C=C/C(C)=C/C=C/C(C)=C\C(=O)O)C(C)(C)CCC1` [ISOTRETINOIN], the Hepatotoxicity result in the data set on Hepatotoxicity [1] is listed as “no drug-induced liver injury reported”; in the data set with Hepatotoxicity [2], “no drug-induced liver injury reported”; in the data set with Hepatotoxicity [3], “drug-induced liver injury reported”.
For `CC(COc1ccccc1)NC(C)C(O)c1ccc(O)cc1` (centres undefined) [ISOXSUPRINE], the Hepatotoxicity entry was “no drug-induced liver injury reported” with Hepatotoxicity [1], “drug-induced liver injury reported” with Hepatotoxicity [2] and “no drug-induced liver injury reported” with Hepatotoxicity [3].
In the case of `COC(=O)C1=C(C)NC(C)=C(C(=O)OC(C)C)C1c1cccc2nonc12` (centres undefined) [ISRADIPINE], the Hepatotoxicity entry with Hepatotoxicity [1] is listed as “no drug-induced liver injury reported”; in the data set with Hepatotoxicity [2], “no drug-induced liver injury reported”; in the data set with Hepatotoxicity [3], “drug-induced liver injury reported”.
As to `CCC(C)n1ncn(-c2ccc(N3CCN(c4ccc(OCC5COC(Cn6cncn6)(c6ccc(Cl)cc6Cl)O5)cc4)CC3)cc2)c1=O` (centres undefined) [ITRACONAZOLE], the Hepatotoxicity result with Hepatotoxicity [1] was “no drug-induced liver injury reported”; in the data set with Hepatotoxicity [2], “drug-induced liver injury reported”; with Hepatotoxicity [3], “drug-induced liver injury reported”.
In the case of `C/C(=C\c1csc(C)n1)[C@@H]1C[C@@H]2O[C@]2(C)CCC[C@H](C)[C@H](O)[C@@H](C)C(=O)C(C)(C)[C@@H](O)CC(=O)N1` [IXABEPILONE], the results for the Hepatotoxicity result in the data set with Hepatotoxicity [1], in the data set on Hepatotoxicity [2] and in the data set on Hepatotoxicity [3] were “no drug-induced liver injury reported”, “no drug-induced liver injury reported” and “drug-induced liver injury reported”, respectively.
As to `CNC1(c2ccccc2Cl)CCCCC1=O` (centres undefined) [KETAMINE], the figures for the Hepatotoxicity entry in the data set on Hepatotoxicity [1], in the data set with Hepatotoxicity [2] and in the data set on Hepatotoxicity [3] were “drug-induced liver injury reported”, “drug-induced liver injury reported” and “no drug-induced liver injury reported”, respectively.
`O=C(c1ccc(F)cc1)C1CCN(CCn2c(=O)[nH]c3ccccc3c2=O)CC1` [KETANSERIN]: the Hepatotoxicity entry in the data set on Hepatotoxicity [1] is on record as “no drug-induced liver injury reported”; with Hepatotoxicity [2], “drug-induced liver injury reported”; with Hepatotoxicity [3] it was “drug-induced liver injury reported”.
With `CC(=O)N1CCN(c2ccc(OCC3COC(Cn4ccnc4)(c4ccc(Cl)cc4Cl)O3)cc2)CC1` (centres undefined) [KETOCONAZOLE], the Hepatotoxicity entry in the data set on Hepatotoxicity [1], with Hepatotoxicity [2] and in the data set with Hepatotoxicity [3] was “drug-induced liver injury reported” each time.
As to `CC(C(=O)O)c1cccc(C(=O)c2ccccc2)c1` (centres undefined) [KETOPROFEN], the Hepatotoxicity result with Hepatotoxicity [1] is recorded as “no drug-induced liver injury reported”; in the data set on Hepatotoxicity [2], “no drug-induced liver injury reported”; in the data set on Hepatotoxicity [3], “drug-induced liver injury reported”.
Regarding `COc1c2occc2c(OC)c2c(=O)cc(C)oc12` [KHELLIN], the Hepatotoxicity result is on record as “no drug-induced liver injury reported” with Hepatotoxicity [1], “drug-induced liver injury reported” in the data set on Hepatotoxicity [2] and “no drug-induced liver injury reported” with Hepatotoxicity [3].
Consider `CC(CCc1ccccc1)NCC(O)c1ccc(O)c(C(N)=O)c1` (centres undefined) [LABETALOL], for which the Hepatotoxicity result with Hepatotoxicity [1] was “no drug-induced liver injury reported”; in the data set on Hepatotoxicity [2], “no drug-induced liver injury reported”; with Hepatotoxicity [3] it was “drug-induced liver injury reported”.
Turning to `CC(O)C(=O)O` (centres undefined) [LACTIC ACID], the Hepatotoxicity entry in the data set with Hepatotoxicity [1], in the data set with Hepatotoxicity [2] and in the data set on Hepatotoxicity [3] was “drug-induced liver injury reported” throughout.
`OC[C@H]1O[C@@H](O[C@@H]2[C@@H](CO)O[C@](O)(CO)[C@H]2O)[C@H](O)[C@@H](O)[C@H]1O` [LACTULOSE]: the Hepatotoxicity entry with Hepatotoxicity [1] is listed as “no drug-induced liver injury reported”; in the data set with Hepatotoxicity [2], “drug-induced liver injury reported”; with Hepatotoxicity [3], “drug-induced liver injury reported”.
Turning to `Nc1ccn([C@@H]2CS[C@H](CO)O2)c(=O)n1` [LAMIVUDINE], the Hepatotoxicity result in the data set on Hepatotoxicity [1] is given as “no drug-induced liver injury reported”; with Hepatotoxicity [2], “drug-induced liver injury reported”; in the data set with Hepatotoxicity [3], “drug-induced liver injury reported”.
With `Nc1nnc(-c2cccc(Cl)c2Cl)c(N)n1` [LAMOTRIGINE], the Hepatotoxicity result in the data set with Hepatotoxicity [1] was “no drug-induced liver injury reported”; with Hepatotoxicity [2], “no drug-induced liver injury reported”; in the data set with Hepatotoxicity [3], “drug-induced liver injury reported”.
Turning to `CC(C)[C@@H]1NC(=O)[C@H](CCCCN)NC(=O)[C@@H](Cc2c[nH]c3ccccc23)NC(=O)[C@H](Cc2ccc(O)cc2)NC(=O)[C@@H](NC(=O)[C@H](N)Cc2ccc3ccccc3c2)CSSC[C@@H](C(=O)N[C@H](C(N)=O)[C@@H](C)O)NC1=O` [LANREOTIDE], the Hepatotoxicity result is “no drug-induced liver injury reported” in the data set with Hepatotoxicity [1], “no drug-induced liver injury reported” in the data set on Hepatotoxicity [2] and “drug-induced liver injury reported” with Hepatotoxicity [3].
Consider `Cc1c(OCC(F)(F)F)ccnc1C[S+]([O-])c1nc2ccccc2[nH]1` (centres undefined) [LANSOPRAZOLE], for which the Hepatotoxicity result in the data set with Hepatotoxicity [1] is reported as “no drug-induced liver injury reported”; with Hepatotoxicity [2], “no drug-induced liver injury reported”; in the data set on Hepatotoxicity [3], “drug-induced liver injury reported”.
Take `CC1(C)CCC2=C(O1)c1ccccc1C(=O)C2=O` [LAPACHONE]: the Hepatotoxicity result with Hepatotoxicity [1] is given as “no drug-induced liver injury reported”; in the data set on Hepatotoxicity [2], “no drug-induced liver injury reported”; with Hepatotoxicity [3] it was “drug-induced liver injury reported”.
As for `Cc1oncc1C(=O)Nc1ccc(C(F)(F)F)cc1` [LEFLUNOMIDE], the Hepatotoxicity entry is recorded as “no drug-induced liver injury reported” with Hepatotoxicity [1], “drug-induced liver injury reported” in the data set on Hepatotoxicity [2] and “drug-induced liver injury reported” in the data set with Hepatotoxicity [3].
For the compound `Nc1nc2c(c(=O)[nH]1)N(C=O)C(CNc1ccc(C(=O)N[C@@H](CCC(=O)O)C(=O)O)cc1)CN2` (some centres undefined) [LEUCOVORIN], the Hepatotoxicity entry in the data set with Hepatotoxicity [1] is recorded as “no drug-induced liver injury reported”; in the data set with Hepatotoxicity [2], “drug-induced liver injury reported”; with Hepatotoxicity [3], “drug-induced liver injury reported”.
Consider `c1ccc([C@H]2CN3CCSC3=N2)cc1` [LEVAMISOLE], for which the Hepatotoxicity entry in the data set with Hepatotoxicity [1] (Liver) is on record as “no drug-induced liver injury reported”; with Hepatotoxicity [2] (Liver) it was “drug-induced liver injury reported”; with Hepatotoxicity [3] (Liver) it was “drug-induced liver injury reported”.
Consider `N[C@@H](Cc1ccc(O)c(O)c1)C(=O)O` [LEVODOPA], for which the Hepatotoxicity result was “no drug-induced liver injury reported” with Hepatotoxicity [1], “drug-induced liver injury reported” in the data set with Hepatotoxicity [2] and “drug-induced liver injury reported” with Hepatotoxicity [3].
Turning to `C[C@H]1COc2c(N3CCN(C)CC3)c(F)cc3c(=O)c(C(=O)O)cn1c23.C[C@H]1COc2c(N3CCN(C)CC3)c(F)cc3c(=O)c(C(=O)O)cn1c23.O` [LEVOFLOXACIN], the figures for the Hepatotoxicity result with Hepatotoxicity [1], with Hepatotoxicity [2] and in the data set on Hepatotoxicity [3] were “no drug-induced liver injury reported”, “no drug-induced liver injury reported” and “drug-induced liver injury reported”, respectively.
`C[C@@H]1CC(=O)NN=C1c1ccc(NN=C(C#N)C#N)cc1` [LEVOSIMENDAN]: the Hepatotoxicity result with Hepatotoxicity [1] is “drug-induced liver injury reported”; in the data set on Hepatotoxicity [2] it was “no drug-induced liver injury reported”; in the data set with Hepatotoxicity [3], “no drug-induced liver injury reported”.
